What is called IC50 is the point on the concentration scale where inhibition reaches its midpoint. In general, EC50 refers to the concentration needed to bring the measured effect to its halfway point. Low readings indicate higher potency in that assay, high ones lower potency in that assay.

In one test the target is T1, human DGKα (Homo sapiens, UniProt P23743).
T1 construct: TVMV protease cleavage site (C); Hexa-His (C); made in house; host or cells: Sf9 insect cells (baculovirus)
Description: In vitro DGK inhibition assay, DGKα liposome (LIPGLO) assay. Type of test: biochemical. To be noted: read-out: Enzyme Inhibition DGKalpha IC50. The method in brief:
(§1)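 Baculovirus/Sf9-expressed His-tagged human DGKα or DGKζ (5 nM) on extruded liposomes (2 mM PS, 0.25 mM DAG, 2.75 mM PC) in MOPS pH 7.5 with MgCl2, CaCl2 and 150 μM ATP, 1 h.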

The next test concerns the target T2, human DGKζ (Homo sapiens, UniProt Q13574).
T2 construct: TVMV protease cleavage site (C); Hexa-His (C); made in house; host or cells: Sf9 insect cells (baculovirus)
Description: In vitro DGK inhibition assay, DGKζ liposome (LIPGLO) assay. Type of test: biochemical. The following applies: read-out: Enzyme Inhibition DGKzeta IC50. The gist of the method: as §1

A further test has as its target DGKalpha (Homo sapiens, UniProt P23743). Description: Translocation DGKalpha. Type of test: cell-based.
The target in the next test is DGKzeta (Homo sapiens, UniProt Q13574). Description: Translocation DGKzeta. Type of test: cell-based.
DGKzeta, sequence (Q13574 whole entry): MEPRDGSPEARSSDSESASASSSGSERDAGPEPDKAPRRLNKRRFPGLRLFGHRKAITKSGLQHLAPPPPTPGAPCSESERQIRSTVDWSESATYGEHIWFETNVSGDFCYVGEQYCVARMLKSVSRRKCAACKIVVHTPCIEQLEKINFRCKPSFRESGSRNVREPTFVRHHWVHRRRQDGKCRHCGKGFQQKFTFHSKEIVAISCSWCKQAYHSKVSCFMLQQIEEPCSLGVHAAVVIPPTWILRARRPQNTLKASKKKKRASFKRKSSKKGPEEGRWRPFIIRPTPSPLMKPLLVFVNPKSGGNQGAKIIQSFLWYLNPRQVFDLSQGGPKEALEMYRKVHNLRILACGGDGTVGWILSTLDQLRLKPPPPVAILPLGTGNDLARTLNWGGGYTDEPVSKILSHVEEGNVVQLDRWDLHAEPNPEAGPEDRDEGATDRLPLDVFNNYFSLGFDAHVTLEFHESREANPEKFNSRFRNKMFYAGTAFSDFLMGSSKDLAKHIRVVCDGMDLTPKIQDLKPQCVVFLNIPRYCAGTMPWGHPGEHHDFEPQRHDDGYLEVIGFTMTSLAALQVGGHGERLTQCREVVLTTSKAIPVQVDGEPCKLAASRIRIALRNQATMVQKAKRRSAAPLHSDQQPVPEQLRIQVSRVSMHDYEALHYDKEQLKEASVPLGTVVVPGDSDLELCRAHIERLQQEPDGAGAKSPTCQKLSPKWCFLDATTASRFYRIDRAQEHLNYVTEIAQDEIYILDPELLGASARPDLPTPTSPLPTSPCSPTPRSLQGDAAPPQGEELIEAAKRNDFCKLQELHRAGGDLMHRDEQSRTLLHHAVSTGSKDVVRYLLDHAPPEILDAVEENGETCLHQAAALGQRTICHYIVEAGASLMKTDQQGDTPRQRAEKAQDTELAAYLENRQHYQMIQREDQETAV

T1 sequence (P23743 with tags, fused parts or gaps): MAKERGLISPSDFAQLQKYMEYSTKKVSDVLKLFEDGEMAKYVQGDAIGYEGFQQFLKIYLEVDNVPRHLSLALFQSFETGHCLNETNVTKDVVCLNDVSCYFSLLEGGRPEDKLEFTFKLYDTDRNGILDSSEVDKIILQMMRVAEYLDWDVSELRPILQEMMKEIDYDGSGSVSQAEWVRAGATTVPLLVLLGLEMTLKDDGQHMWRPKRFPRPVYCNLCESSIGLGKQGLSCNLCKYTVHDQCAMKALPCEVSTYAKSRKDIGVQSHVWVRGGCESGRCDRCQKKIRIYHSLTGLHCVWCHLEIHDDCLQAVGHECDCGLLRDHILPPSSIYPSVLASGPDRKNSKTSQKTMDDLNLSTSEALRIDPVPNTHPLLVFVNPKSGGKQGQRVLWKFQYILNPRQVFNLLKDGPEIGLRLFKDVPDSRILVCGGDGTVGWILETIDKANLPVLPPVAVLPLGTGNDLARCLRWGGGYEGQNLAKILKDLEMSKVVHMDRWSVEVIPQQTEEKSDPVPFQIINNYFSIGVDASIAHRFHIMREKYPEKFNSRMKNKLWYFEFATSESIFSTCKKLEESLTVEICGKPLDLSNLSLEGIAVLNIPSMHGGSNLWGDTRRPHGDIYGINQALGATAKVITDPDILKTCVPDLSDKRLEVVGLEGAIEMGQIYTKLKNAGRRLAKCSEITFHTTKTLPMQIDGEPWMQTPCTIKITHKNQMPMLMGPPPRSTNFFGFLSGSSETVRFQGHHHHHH
DGKalpha, sequence (P23743 whole entry): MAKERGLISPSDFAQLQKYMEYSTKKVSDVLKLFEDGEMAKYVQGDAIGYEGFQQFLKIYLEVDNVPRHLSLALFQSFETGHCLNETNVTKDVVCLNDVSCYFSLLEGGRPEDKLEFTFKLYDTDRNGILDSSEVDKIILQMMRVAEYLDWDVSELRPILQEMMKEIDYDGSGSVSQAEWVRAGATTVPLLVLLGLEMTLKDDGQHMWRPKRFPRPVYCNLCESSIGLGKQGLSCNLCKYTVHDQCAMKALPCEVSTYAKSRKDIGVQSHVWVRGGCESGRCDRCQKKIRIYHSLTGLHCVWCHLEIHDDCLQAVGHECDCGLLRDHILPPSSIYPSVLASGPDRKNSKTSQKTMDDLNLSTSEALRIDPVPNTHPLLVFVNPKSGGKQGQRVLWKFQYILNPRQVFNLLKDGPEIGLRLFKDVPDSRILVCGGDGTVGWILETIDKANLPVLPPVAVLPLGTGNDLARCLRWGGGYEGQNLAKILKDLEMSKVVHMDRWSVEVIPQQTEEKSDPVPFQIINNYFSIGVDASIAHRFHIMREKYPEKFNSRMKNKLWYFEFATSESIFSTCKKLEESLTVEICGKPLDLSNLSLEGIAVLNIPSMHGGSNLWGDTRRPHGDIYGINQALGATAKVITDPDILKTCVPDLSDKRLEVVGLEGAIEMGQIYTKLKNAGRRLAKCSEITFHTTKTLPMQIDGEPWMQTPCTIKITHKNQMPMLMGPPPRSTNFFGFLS
T2 sequence (Q13574 with tags, fused parts or gaps isoform Q13574-4): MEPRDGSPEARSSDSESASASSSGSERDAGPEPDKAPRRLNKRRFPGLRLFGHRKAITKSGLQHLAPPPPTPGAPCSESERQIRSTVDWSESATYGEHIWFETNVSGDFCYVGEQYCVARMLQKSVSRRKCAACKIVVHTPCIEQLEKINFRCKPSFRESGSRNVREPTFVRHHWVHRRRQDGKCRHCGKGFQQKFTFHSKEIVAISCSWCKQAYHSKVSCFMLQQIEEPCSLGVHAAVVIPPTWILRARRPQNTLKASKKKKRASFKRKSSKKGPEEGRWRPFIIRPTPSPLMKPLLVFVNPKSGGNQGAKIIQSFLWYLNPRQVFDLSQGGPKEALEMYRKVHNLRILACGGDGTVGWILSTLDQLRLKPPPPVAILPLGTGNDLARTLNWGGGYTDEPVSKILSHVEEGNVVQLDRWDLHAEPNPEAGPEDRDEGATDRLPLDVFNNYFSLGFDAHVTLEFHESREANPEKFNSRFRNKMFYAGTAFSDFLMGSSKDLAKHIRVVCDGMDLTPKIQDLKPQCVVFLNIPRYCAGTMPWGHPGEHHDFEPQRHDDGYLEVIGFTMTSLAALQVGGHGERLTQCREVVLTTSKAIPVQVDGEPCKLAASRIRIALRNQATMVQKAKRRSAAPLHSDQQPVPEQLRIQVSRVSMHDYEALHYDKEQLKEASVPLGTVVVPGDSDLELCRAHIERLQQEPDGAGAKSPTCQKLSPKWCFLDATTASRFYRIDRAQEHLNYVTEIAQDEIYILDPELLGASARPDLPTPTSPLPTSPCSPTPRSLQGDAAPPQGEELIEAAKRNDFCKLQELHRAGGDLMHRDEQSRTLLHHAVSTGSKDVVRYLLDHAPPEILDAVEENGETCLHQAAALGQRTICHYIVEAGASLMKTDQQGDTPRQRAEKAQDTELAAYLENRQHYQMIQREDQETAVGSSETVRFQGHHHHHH

For the compound `Cn1c(=O)cc(N(CC2CC2)c2ccc(Br)cc2)c2nc(C#N)ccc21` [Example 18, 8-[(4-bromophenyl)(cyclopropylmethyl)amino]-5-methyl-6-oxo-5,6-dihydro-1,5-naphthyridine-2-carbonitrile], the concentration for half-maximal inhibition (IC50) on human DGKα was determined as 0.26 µM; on human DGKζ, 0.23 µM. For the same compound, the EC50 turned out to be 2.7 µM at DGKalpha and 5 µM at DGKzeta.

As for `Cn1c(=O)cc(N(CC2CC2)c2ccc(OCC(F)(F)F)cc2)c2nc(C#N)ccc21` [Example 37, 8-((cyclopropylmethyl)(4-(2,2,2-trifluoroethoxy)phenyl)amino)-5-methyl-6-oxo-5,6-dihydro-1,5-naphthyridine-2-carbonitrile], the IC50 at human DGKα stood at 1.1 µM; on human DGKζ, 0.35 µM. Moreover, the EC50 on DGKalpha worked out at 10 µM; at DGKzeta, 5 µM.

In the case of `Cc1ccc(N(CC2CC2)c2cc(=O)n(C)c3ccc(C#N)nc23)cc1` [Example 62, 8-((cyclopropylmethyl)(p-tolyl)amino)-5-methyl-6-oxo-5,6-dihydro-1,5-naphthyridine-2-carbonitrile], the IC50 on human DGKα turned out to be 3.8 µM; on human DGKζ, 2.9 µM. The figures for the EC50 at DGKalpha and on DGKzeta were 0.75 µM and 0.54 µM, respectively.

Turning to `Cn1c(=O)cc(N(CC2CC2)c2ccc3occc3c2)c2nc(C#N)ccc21` [Example 65, 8-(benzofuran-5-yl (cyclopropylmethyl)amino)-5-methyl-6-oxo-5,6-dihydro-1,5-naphthyridine-2-carbonitrile], the figures for the IC50 on human DGKα and on human DGKζ were 1.9 µM and 2.7 µM, respectively. In addition, the EC50 on DGKalpha worked out at 1.1 µM; at DGKzeta, 0.57 µM.

Take `Cn1c(=O)cc(N(CC2CC2)c2ccc(C#N)nc2)c2nc(C#N)ccc21` [Example 66, 8-((6-cyanopyridin-3-yl)(cyclopropylmethyl)amino)-5-methyl-6-oxo-5,6-dihydro-1,5-naphthyridine-2-carbonitrile]: the IC50 on human DGKα was 17 µM; on human DGKζ it was 8.4 µM. This compound registered an EC50 on DGKzeta of 3 µM.

Turning to `Cn1c(=O)cc(N(CC2CC2)c2ccc(OC(F)F)nc2)c2nc(C#N)ccc21` [Example 112, 8-((cyclopropylmethyl)(6-(difluoromethoxy)pyridin-3-yl)amino)-5-methyl-6-oxo-5,6-dihydro-1,5-naphthyridine-2-carbonitrile], the figures for the IC50 on human DGKα and on human DGKζ were 4.7 µM and 1.1 µM, respectively. For the same compound, the EC50 on DGKalpha is > 3 µM; at DGKzeta, 0.091 µM.

Take `Cc1cc(C2CC2)ccc1N(CC1CC1)c1cc(=O)n(C)c2ccc(C#N)nc12` [Example 113, 8-((4-cyclopropyl-2-methylphenyl) (cyclopropylmethyl)amino)-5-methyl-6-oxo-5,6-dihydro-1,5-naphthyridine-2-carbonitrile]: the IC50 on human DGKα turned out to be 4.8 µM; on human DGKζ, 29 µM. The EC50 is > 3 µM at DGKalpha and 0.25 µM on DGKzeta.

With `Cn1c(=O)cc(N(CC2CC2)c2ccc(C3CC3)nc2)c2nc(C#N)ccc21` [Example 114, 8-((cyclopropylmethyl)(6-cyclopropylpyridin-3-yl)amino)-5-methyl-6-oxo-5,6-dihydro-1,5-naphthyridine-2-carbonitrile], the IC50 on human DGKα was 7.9 µM; at human DGKζ, 1.4 µM. Also, the EC50 is > 3 µM at DGKalpha and 0.13 µM on DGKzeta.

Consider `CN(C)c1ccc(N(CC2CC2)c2cc(=O)n(C)c3ccc(C#N)nc23)cc1` [Example 116, 8-((cyclopropylmethyl)(4-(dimethylamino)phenyl)amino)-5-methyl-6-oxo-5,6-dihydro-1,5-naphthyridine-2-carbonitrile], for which the IC50 was 8.7 µM at human DGKα and 2.4 µM on human DGKζ. Besides, the EC50 at DGKalpha was > 3 µM; on DGKzeta it was 0.11 µM.

Consider `Cc1cc(N(CC2CC2)c2cc(=O)n(C)c3ccc(C#N)nc23)ccc1OC(F)F` [Example 117, 8-((cyclopropylmethyl)(4-(difluoromethoxy)-3-methylphenyl)amino)-5-methyl-6-oxo-5,6-dihydro-1,5-naphthyridine-2-carbonitrile], for which the IC50 is 8.8 µM at human DGKα and 4.7 µM on human DGKζ. Moreover, the EC50 on DGKalpha is > 3 µM; at DGKzeta, 0.16 µM.

For the compound `Cn1c(=O)cc(N(CC2CC2)c2ccc(C3CCC3)cc2)c2nc(C#N)ccc21` [Example 118, 8-((4-cyclobutylphenyl) (cyclopropylmethyl)amino)-5-methyl-6-oxo-5,6-dihydro-1,5-naphthyridine-2-carbonitrile], the IC50 at human DGKα came out at 9.3 µM; at human DGKζ it was 1.3 µM. This compound had an EC50 on DGKzeta of 0.013 µM.

With `Cn1c(=O)cc(N(CC2CC2)c2ccc(C3CCCCC3)cc2)c2nc(C#N)ccc21` [Example 119, 8-((4-cyclohexylphenyl)(cyclopropylmethyl)amino)-5-methyl-6-oxo-5,6-dihydro-1,5-naphthyridine-2-carbonitrile], the IC50 on human DGKα worked out at 13 µM; at human DGKζ it was 12 µM. A half-maximal response at DGKzeta (EC50) required 0.041 µM.

With `Cn1c(=O)cc(N(CC2CC2)c2ccc3c(c2)OCCO3)c2nc(C#N)ccc21` [Example 120, 8-((cyclopropylmethyl)(2,3-dihydrobenzo[b][1,4]dioxin-6-yl)amino)-5-methyl-6-oxo-5,6-dihydro-1,5-naphthyridine-2-carbonitrile], the results for the IC50 at human DGKα and on human DGKζ were 13 µM and 6.9 µM, respectively. Moreover, the EC50 is 0.92 µM at DGKalpha and 0.33 µM on DGKzeta.

As for `Cn1c(=O)cc(N(CC2CC2)[C@H]2CC[C@H](c3ccccc3)CC2)c2nc(C#N)ccc21` [Example 121, 8-((cyclopropylmethyl)((1r,4r)-4-phenylcyclohexyl)amino)-5-methyl-6-oxo-5,6-dihydro-1,5-naphthyridine-2-carbonitrile], the IC50 was found to be 16 µM at human DGKα and 18 µM on human DGKζ. At DGKzeta, this compound came in with an EC50 of 0.29 µM.

Take `Cn1c(=O)cc(N(CC2CC2)c2ccc(C3CC3)c(-c3ccccc3)c2)c2nc(C#N)ccc21` [Example 122, 8-((6-cyclopropyl-[1,1′-biphenyl]-3-yl)(cyclopropylmethyl)amino)-5-methyl-6-oxo-5,6-dihydro-1,5-naphthyridine-2-carbonitrile]: the 50% inhibitory concentration (IC50) was 19 µM at human DGKα and 22 µM at human DGKζ. Besides, the figures for the EC50 on DGKalpha and on DGKzeta were > 3 µM and 0.17 µM, respectively.

On to `Cn1c(=O)cc(N(CC2CC2)c2ccc(OC(F)F)cn2)c2nc(C#N)ccc21` [Example 123], for which the figures for the IC50 on human DGKα and on human DGKζ were 24 µM and 1.2 µM, respectively. Further, the figures for the EC50 on DGKalpha and at DGKzeta were > 3 µM and 0.64 µM, respectively.

Take `Cn1c(=O)cc(N(CC2CC2)c2ccc(C3CC3)c(-c3ccc(N4CCOCC4)cc3)c2)c2nc(C#N)ccc21` [Example 124, 8-((6-cyclopropyl-4′-morpholino-[1,1′-biphenyl]-3-yl)(cyclopropylmethyl)amino)-5-methyl-6-oxo-5,6-dihydro-1,5-naphthyridine-2-carbonitrile]: the results for the IC50 on human DGKα and at human DGKζ were 34 µM and > 38 µM, respectively. Further, the EC50 was determined as 2.5 µM at DGKalpha and 0.18 µM at DGKzeta.

As to `Cn1c(=O)cc(N(CC2CC2)c2ccc(C3CC3)c(-c3ccc(C4CC4)cc3)c2)c2nc(C#N)ccc21` [Example 125, 8-((cyclopropylmethyl)(4′,6-dicyclopropyl-[1,1′-biphenyl]-3-yl)amino)-5-methyl-6-oxo-5,6-dihydro-1,5-naphthyridine-2-carbonitrile], the IC50 on human DGKα worked out at 36 µM; at human DGKζ, 32 µM. The concentration giving a half-maximal response (EC50) on DGKalpha is > 3 µM; at DGKzeta it was 0.091 µM.

As to `Cn1c(=O)cc(N(CC2CC2)c2ccc(C3CC3)c(-c3cccc(F)c3)c2)c2nc(C#N)ccc21` [Example 126, 8-((6-cyclopropyl-3′-fluoro-[, 1′-biphenyl]-3-yl) (cyclopropylmethyl)amino)-5-methyl-6-oxo-5,6-dihydro-1,5-naphthyridine-2-carbonitrile], the values for the IC50 at human DGKα and on human DGKζ were > 38 µM and 17 µM, respectively. In addition, the EC50 on DGKalpha was > 3 µM; on DGKzeta, 0.085 µM.

`Cn1c(=O)cc(N(CC2CC2)c2ccc(C3CC3)c(-c3ccc(F)cc3)c2)c2nc(C#N)ccc21` [Example 127, 8-((6-cyclopropyl-4′-fluoro-[1,1′-biphenyl]-3-yl)(cyclopropylmethyl)amino)-5-methyl-6-oxo-5,6-dihydro-1,5-naphthyridine-2-carbonitrile]: the figures for the IC50 on human DGKα and on human DGKζ were > 38 µM and 18 µM, respectively. The EC50 at DGKalpha is > 3 µM; at DGKzeta, 0.1 µM.

As to `Cn1c(=O)cc(N(CC2CC2)c2ccc(C3CC3)c(-c3ccc(Cl)cc3)c2)c2nc(C#N)ccc21` [Example 128, 8-((4′-chloro-6-cyclopropyl-[1,1′-biphenyl]-3-yl)(cyclopropylmethyl)amino)-5-methyl-6-oxo-5,6-dihydro-1,5-naphthyridine-2-carbonitrile], the IC50 at human DGKα and at human DGKζ was > 38 µM each time. Moreover, the half-maximal effective concentration (EC50) at DGKalpha is > 3 µM; on DGKzeta it was 0.13 µM.

As to `COc1cccc(-c2cc(N(CC3CC3)c3cc(=O)n(C)c4ccc(C#N)nc34)ccc2C2CC2)c1` [Example 129, 8-((6-cyclopropyl-3′-methoxy-[1,1′-biphenyl]-3-yl)(cyclopropylmethyl)amino)-5-methyl-6-oxo-5,6-dihydro-1,5-naphthyridine-2-carbonitrile], the IC50 on human DGKα and on human DGKζ was > 38 µM in each case. Further, the values for the EC50 at DGKalpha and on DGKzeta were > 1.5 µM and 0.13 µM, respectively.

Values taken from US20260049076A1, “Tertiary Amine Substituted Bicyclic Compounds Useful as T Cell Activators” (BRISTOL-MYERS SQUIBB COMPANY, priority 2022, published 2026).
